Laboratory results as given in PubChem BioAssay AID602347 (The Scripps Research Institute Molecular Screening Center, 2012).

Target: Monoacylglycerol lipase ABHD6 (Mus musculus) (UniProt Q8R2Y0)
Assay: ABHD6 inhibition in mouse brain after dosing, late-stage follow-up, in vivo study for DAGLb inhibitor project, gel-based competitive ABPP, fluorescence (AID 602347)
Details: active compounds read high, dose or concentration not given here

Chain of Monoacylglycerol lipase ABHD6 (Mus musculus) (Q8R2Y0 whole entry, looked up): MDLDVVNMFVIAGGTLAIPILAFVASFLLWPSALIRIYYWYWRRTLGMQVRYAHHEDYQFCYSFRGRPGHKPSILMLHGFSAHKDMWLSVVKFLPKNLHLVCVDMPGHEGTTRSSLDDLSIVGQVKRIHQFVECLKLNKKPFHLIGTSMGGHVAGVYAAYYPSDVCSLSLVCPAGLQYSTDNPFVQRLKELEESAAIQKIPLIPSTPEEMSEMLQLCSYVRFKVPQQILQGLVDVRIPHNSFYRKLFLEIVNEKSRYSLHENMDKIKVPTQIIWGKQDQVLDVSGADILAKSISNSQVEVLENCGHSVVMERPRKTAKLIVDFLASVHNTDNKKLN

Compound	inhibition (with FP-Rh probe) [%]	inhibition (with HT-01 probe) [%]
O=C(N1CCCCC1Cc1ccccc1)n1cc(-c2ccc(-c3ccccc3C(F)(F)F)cc2)nn1 (stereo unspecified)	95	95
O=C(N1CCCCC1Cc1ccccc1)n1cc(-c2ccc(-c3ccccc3)cc2)nn1 (stereo unspecified)	100	100
COc1ccccc1-c1ccc(-c2cn(C(=O)N3CCCCC3Cc3ccccc3)nn2)cc1 (stereo unspecified)	100	100
